Tests used:
[1] = test system: MDA-MB231 breast cancer xenografts; assay: Dynamic PET imaging of radiotracer uptake in MDA-MB231 tumor-bearing mice; format: in vivo, NIH-III nude mice; settings: for SUV mean, Harderian glands / SUV mean, brain / SUV mean, heart / SUV mean, joint / SUV mean, kidneys / SUV mean, liver / SUV mean, muscle / SUV mean, spine / SUV mean, tumor: 60 min
Method: (§1) Normal BALB/c mice or breast cancer xenografts were used for the PET imaging experiments. Human MDA-MB231 cells (3-5×10^6 cells in 100 μL PBS) were injected subcutaneously into 8-12 weeks old anesthetized female NIH-III nude mice (Charles River, Saint-Constant, QC, Canada). Tumors were grown for 3-4 weeks, reaching sizes of 300-500 mm^3. For fasting experiments, the food was removed from the mice for 24 h prior to the PET experiment.
(§2) Mice were anesthetized with isoflurane (40% O2/60% N2) and their body temperature was kept constant at 37° C. They were positioned and immobilized in prone position into the centre of the field of view of an INVEON® PET scanner (Siemens Preclinical Solutions, Knoxville, TN, USA). A transmission scan for attenuation correction was not acquired. Radioactivity present in the injection solution (0.5 mL insulin syringe) was determined using a dose calibrator (Atomlab™ 300, Biodex Medical Systems, New York, NY, USA). After the emission scan was started, radioactivity (4-8 MBq in 100-150 μL saline) was injected with a delay of ˜15 s through a tail vein catheter. Dynamic PET data acquisition was performed in 3D list mode for 60 min. Dynamic list mode data were sorted into sinograms with 54 time frames (10×2 s, 8×5 s, 6×10 s, 6×20 s, 8×60 s, 10×120 s, 5×300 s). Frames were reconstructed using the maximum a posteriori (MAP) reconstruction mode. No correction for partial volume effects was performed. Image files were further processed using the ROVER v2.0.51 software (ABX GmbH, Radeberg, Germany). Masks defining 3D ROI were set and defined by 50% thresholding. Mean standardized uptake values [SUV=(activity/mL tissue)/(injected activity/body weight) were calculated for each ROI. Time-activity curves (TAC) were generated from the dynamic scans using GraphPad® Prism 5.04 (GraphPad Software, La Jolla, CA, USA).
(§3) All semi-quantified PET data are expressed as means±SEM. Where applicable, statistical differences were tested by unpaired Student's t test and were considered significant for p<0.05 (*), p<0.01 (**) and p<0.001 (***).

[2] = test system: subcutaneous MCF-7 breast cancer tumor; assay: Dynamic PET imaging of radiotracer uptake in MCF-7 tumor-bearing mice; format: in vivo
Method: as §2, §3

[3] = test system: normal BALB/c mice; assay: Dynamic PET scans of normal BALB/c mice; format: in vivo; settings: dynamic PET over 30 minutes; for clearance pathway: FIG. 4A; for heart and brain uptake and retention: FIG. 4A-C
Method: as §1
as §2, with “Dynamic PET data acquisition was performed in 3D list mode for 60 min.” left out
as §3

O=C(O)C[C@@H](O)C[18F] [(R)[^18F]FBHB, (R)-[^18F]γ-fluoro-β-hydroxybutyric acid]
SUV mean, Harderian glands ([1]; n=3, 24 h fasted): 1.39 ± 0.11 ^n.s. | SUV mean, brain ([1]; n=3, 24 h fasted): 1.02 ± 0.05 ^n.s. | SUV mean, heart ([1]; n=3, 24 h fasted): 0.95 ± 0.03 ^n.s. | SUV mean, joint ([1]; n=3, 24 h fasted): 1.58 ± 0.02 ^p=0.0501 | SUV mean, kidneys ([1]; n=3, 24 h fasted): 2.36 ± 0.25 ^n.s. | SUV mean, liver ([1]; n=3, 24 h fasted): 0.74 ± 0.02 ^n.s. | SUV mean, muscle ([1]; n=3, 24 h fasted): 0.54 ± 0.02 | SUV mean, spine ([1]; n=3, 24 h fasted): 1.56 ± 0.03 * | SUV mean, tumor ([1]; n=3, 24 h fasted): 0.89 ± 0.05 * | SUV mean, Harderian glands ([1]; n=3, fed (unfasted)): 1.56 ± 0.13 | SUV mean, brain ([1]; n=3, fed (unfasted)): 0.91 ± 0.07 | SUV mean, heart ([1]; n=3, fed (unfasted)): 0.84 ± 0.09 | SUV mean, joint ([1]; n=3, fed (unfasted)): 1.30 ± 0.10 | SUV mean, kidneys ([1]; n=3, fed (unfasted)): 1.96 ± 0.17 | SUV mean, liver ([1]; n=3, fed (unfasted)): 0.66 ± 0.08 | SUV mean, muscle ([1]; n=3, fed (unfasted)): 0.50 ± 0.05 | SUV mean, spine ([1]; n=3, fed (unfasted)): 1.39 ± 0.03 | SUV mean, tumor ([1]; n=3, fed (unfasted)): 0.77 ± 0.06 | MDA-MB-231 tumor and muscle uptake, 24 hour fast versus fed state (time activity curves) ([1]; FIGS. 9B-C): statistically significant increase in uptake | tumor retention in mice fed a glucose-free, fructose-based diet (SUV ratio versus time) ([1]; MDA-MB231 tumors, FIG. 7): higher | retention in tumor tissue compared to muscle tissue ([1]; subcutaneous MDA-MB231 tumor, FIG. 3A, 3C): higher retention in tumor tissue as compared to muscle tissue | brain uptake after 24 hour fast versus fed (SUV ratio versus time) ([2]; MCF7 tumor-bearing mice, FIG. 6A): increased | heart uptake after 24 hour fast versus fed (SUV ratio versus time) ([2]; MCF7 tumor-bearing mice, FIG. 6B): increased | tumor retention after 24 hour fast versus fed (SUV ratio versus time) ([2]; MCF7 tumor-bearing mice, FIG. 6C): better tumor retention | retention in tumor tissue compared to muscle tissue ([2]; subcutaneous MCF-7 tumor, FIG. 3A-B): higher retention in tumor tissue as compared to muscle tissue | clearance pathway [3]: renal clearance pathway | heart and brain uptake and retention [3]: moderate heart and brain uptake and retention

O=C(O)C[C@H](O)C[18F] [(S)[^18F]FBHB, (S)-[^18F]γ-fluoro-β-hydroxybutyric acid]
SUV mean, Harderian glands ([1]; n=3, 24 h fasted): 1.15 ± 0.02 | SUV mean, brain ([1]; n=3, 24 h fasted): 1.17 ± 0.02 * | SUV mean, heart ([1]; n=3, 24 h fasted): 1.05 ± 0.02 * | SUV mean, joint ([1]; n=3, 24 h fasted): 1.07 ± 0.08 | SUV mean, kidneys ([1]; n=3, 24 h fasted): 1.38 ± 0.16 | SUV mean, liver ([1]; n=3, 24 h fasted): 0.80 ± 0.02 * | SUV mean, muscle ([1]; n=3, 24 h fasted): 0.60 ± 0.03 | SUV mean, spine ([1]; n=3, 24 h fasted): 1.13 ± 0.04 | SUV mean, tumor ([1]; n=3, 24 h fasted): 0.95 ± 0.04 | SUV mean, Harderian glands ([1]; n=3, fed (unfasted)): 1.10 ± 0.01 | SUV mean, brain ([1]; n=3, fed (unfasted)): 1.08 ± 0.02 | SUV mean, heart ([1]; n=3, fed (unfasted)): 0.96 ± 0.01 | SUV mean, joint ([1]; n=3, fed (unfasted)): 1.10 ± 0.08 | SUV mean, kidneys ([1]; n=3, fed (unfasted)): 1.44 ± 0.05 | SUV mean, liver ([1]; n=3, fed (unfasted)): 0.74 ± 0.01 | SUV mean, muscle ([1]; n=3, fed (unfasted)): 0.57 ± 0.01 | SUV mean, spine ([1]; n=3, fed (unfasted)): 1.10 ± 0.07 | SUV mean, tumor ([1]; n=3, fed (unfasted)): 0.91 ± 0.02 | visibility of xenograft tumors by PET imaging ([1]; intravenous administration, preliminary studies, FIGS. 8A-B and 9A-C): xenograft tumors were visible by PET imaging | tumor uptake compared with muscle uptake, comparison of isomers ([1]; subcutaneous MDA-MB-231 xenograft, FIG. 8B): higher uptake | clearance pathway [3]: renal clearance pathway | brain retention, comparison of isomers ([3]; FIG. 4A lower panel): brain retention highest for the S isomer | heart and brain uptake and retention [3]: moderate heart and brain uptake and retention
